Calls of active or inactive are those of the source. The calls are words filed in the database; no cut-off is given here.
Experiments:
Caenorhabditis elegans [1] = assay: Reduction of initial reproduction rate in Caenorhabditis elegans assessed as first egg deposition at 200 uM after 85 hrs; assay type: functional, organism-based
Caenorhabditis elegans [2] = assay: Reduction of body length of L4 larvae of Caenorhabditis elegans at 200 uM by microscopic analysis; assay type: functional, organism-based
Caenorhabditis elegans [3] = assay: Increase of lifespan of Caenorhabditis elegans assessed as trolox equivalent of lipid soluble antioxidant metabolites at 200 uM by photochemiluminescence assay; assay type: functional, organism-based
Caenorhabditis elegans [4] = assay: Reduction of frequency of pharyngeal pumping in Caenorhabditis elegans at 200 uM on 3rd to 9th day of adulthood; assay type: functional, organism-based
Caenorhabditis elegans [5] = assay: Increase of frequency of pharyngeal pumping in Caenorhabditis elegans at 200 uM on 3rd to 9th day of adulthood; assay type: functional, organism-based
Caenorhabditis elegans [6] = assay: Increase of lifespan of Caenorhabditis elegans assessed as ascorbic acid equivalent of water soluble antioxidant metabolites at 200 uM by photochemiluminescence assay; assay type: functional, organism-based
Caenorhabditis elegans [7] = assay: Increase of lifespan of L4 larvae of Caenorhabditis elegans after 8 hrs in presence of H2O2; assay type: functional, organism-based
Caenorhabditis elegans [8] = assay: Increase of lifespan of L4 larvae of Caenorhabditis elegans at 35 degC after 8 hrs; assay type: functional, organism-based
Caenorhabditis elegans [9] = assay: Increase of lifespan of L4 larvae of Caenorhabditis elegans assessed as lifespan increasing concentration after 8 hrs; assay type: functional
Caenorhabditis elegans [10] = assay: Increase of lifespan of L4 larvae of Caenorhabditis elegans after 8 hrs; assay type: functional, organism-based
Caenorhabditis elegans [11] = assay: Toxicity in L4 larvae of Caenorhabditis elegans at 800 uM after 8 hrs; assay type: organism-based; conditions: in vivo
Caenorhabditis elegans [12] = assay: Reduction of body length of L4 larvae of Caenorhabditis elegans at 50 uM by microscopic analysis; assay type: functional, organism-based
Caenorhabditis elegans [13] = assay: […] assessed as ascorbic acid equivalent of water soluble antioxidant metabolites at 50 uM by photochemiluminescence assay; assay type: functional, organism-based
Caenorhabditis elegans [14] = assay: Reduction of initial reproduction rate in Caenorhabditis elegans assessed as first egg deposition at 50 uM after 85 hrs; assay type: functional, organism-based
Caenorhabditis elegans [15] = assay: Increase of lifespan of L4 larvae of Caenorhabditis elegans at 50 uM in presence of heat killed bacteria; assay type: functional, organism-based
Caenorhabditis elegans [16] = assay: Reduction of frequency of pharyngeal pumping in Caenorhabditis elegans at 50 uM on 3rd to 9th day of adulthood; assay type: functional, organism-based
Caenorhabditis elegans [17] = assay: Increase of frequency of pharyngeal pumping in Caenorhabditis elegans at 300 uM on 9th day of adulthood; assay type: functional, organism-based
Caenorhabditis elegans [18] = assay: […] assessed as trolox equivalent of lipid soluble antioxidant metabolites at 300 uM by photochemiluminescence assay; assay type: functional, organism-based
Caenorhabditis elegans [19] = assay: Increase of lifespan of L4 larvae of Caenorhabditis elegans at 300 uM at 35 degC after 8 hrs; assay type: functional, organism-based
Caenorhabditis elegans [20] = assay: Reduction of frequency of pharyngeal pumping in Caenorhabditis elegans at 300 uM on 3rd to 9th day of adulthood; assay type: functional, organism-based
Caenorhabditis elegans [21] = assay: Increase of body length of L4 larvae of Caenorhabditis elegans at 300 uM by microscopic analysis; assay type: functional, organism-based
Caenorhabditis elegans [22] = assay: Increase of mean lifespan of L4 larvae of Caenorhabditis elegans harboring eat-2 (ad465) at 300 uM after 8 hrs; assay type: functional
Caenorhabditis elegans [23] = assay: Reduction of initial reproduction rate in Caenorhabditis elegans assessed as first egg deposition at 300 uM after 85 hrs; assay type: functional, organism-based
Caenorhabditis elegans [24] = assay: Increase of lifespan of L4 larvae of Caenorhabditis elegans at 300 uM after 8 hrs in presence of H2O2; assay type: functional, organism-based
Caenorhabditis elegans [25] = assay: Increase of lifespan of L4 larvae of Caenorhabditis elegans at 300 uM in presence of heat killed bacteria; assay type: functional, organism-based
Caenorhabditis elegans [26] = assay: Increase of median lifespan of L4 larvae of Caenorhabditis elegans harboring eat-2 (ad465) at 300 uM after 8 hrs; assay type: functional
Caenorhabditis elegans [27] = assay: […] assessed as ascorbic acid equivalent of water soluble antioxidant metabolites at 300 uM by photochemiluminescence assay; assay type: functional, organism-based
Caenorhabditis elegans [28] = assay: Increase of mean lifespan of L4 larvae of wild type Caenorhabditis elegans at 100 uM after 8 hrs; assay type: functional
Caenorhabditis elegans [29] = assay: Increase of mean lifespan of L4 larvae of Caenorhabditis elegans harboring mev-1 (kn1) mutant at 100 uM after 8 hrs; assay type: functional
Caenorhabditis elegans [30] = assay: Reduction of body length of L4 larvae of Caenorhabditis elegans at 100 uM by microscopic analysis; assay type: functional, organism-based
Caenorhabditis elegans [31] = assay: […] assessed as ascorbic acid equivalent of water soluble antioxidant metabolites at 100 uM by photochemiluminescence assay; assay type: functional, organism-based
Caenorhabditis elegans [32] = assay: Reduction of initial reproduction rate in Caenorhabditis elegans assessed as first egg deposition at 100 uM after 85 hrs; assay type: functional, organism-based
Caenorhabditis elegans [33] = assay: Reduction of triglyceride level in Caenorhabditis elegans at 100 uM; assay type: functional, organism-based
Caenorhabditis elegans [34] = assay: […] assessed as trolox equivalent of lipid soluble antioxidant metabolites at 100 uM by photochemiluminescence assay; assay type: functional, organism-based
Caenorhabditis elegans [35] = assay: Reduction of frequency of pharyngeal pumping in Caenorhabditis elegans at 100 uM on 3rd to 9th day of adulthood; assay type: functional, organism-based

## Oc1cc(O)c2c(c1)OC(c1ccc(O)c(O)c1)C(O)C2 (stereo not drawn) [CATECHIN]
Caenorhabditis elegans [1]
  Activity: inactive
Caenorhabditis elegans [2]
  Activity: Active
Caenorhabditis elegans [3]
  Activity: inactive
Caenorhabditis elegans [4]
  Activity: inactive
Caenorhabditis elegans [5]
  Activity: Active
Caenorhabditis elegans [6]
  Activity: inactive
Caenorhabditis elegans [7]
  Activity: Active
Caenorhabditis elegans [8]
  Activity: Active
Caenorhabditis elegans [9]
  Activity: 200 µM
Caenorhabditis elegans [10]
  Activity: Active

## Oc1cc(O)c2c(c1)O[C@H](c1ccc(O)c(O)c1)[C@@H](O)C2 [CATECHIN]
Caenorhabditis elegans [11]
  Activity: Non-toxic

## O=c1oc2c(O)c(O)cc3c(=O)oc4c(O)c(O)cc1c4c23 [ELLAGIC ACID]
Caenorhabditis elegans [12]
  Activity: Active
Caenorhabditis elegans [13]
  Activity: Active
Caenorhabditis elegans [14]
  Activity: Active
Caenorhabditis elegans [11]
  Activity: Toxic
Caenorhabditis elegans [7]
  Activity: inactive
Caenorhabditis elegans [15]
  Activity: Active
Caenorhabditis elegans [16]
  Activity: inactive
Caenorhabditis elegans [9]
  Activity: 50 µM

## O=C(O)c1cc(O)c(O)c(O)c1 [GALLIC ACID]
Caenorhabditis elegans [17]
  Activity: Active
Caenorhabditis elegans [18]
  Activity: inactive
Caenorhabditis elegans [19]
  Activity: inactive
Caenorhabditis elegans [11]
  Activity: Non-toxic
Caenorhabditis elegans [20]
  Activity: inactive
Caenorhabditis elegans [21]
  Activity: Active
Caenorhabditis elegans [22]
  Activity: 7%
Caenorhabditis elegans [23]
  Activity: Active
Caenorhabditis elegans [7]
  Activity: Active
Caenorhabditis elegans [24]
  Activity: inactive
Caenorhabditis elegans [25]
  Activity: Active
Caenorhabditis elegans [26]
  Activity: 11%
Caenorhabditis elegans [8]
  Activity: Active
Caenorhabditis elegans [27]
  Activity: inactive
Caenorhabditis elegans [9]
  Activity: 300 µM
Caenorhabditis elegans [10]
  Activity: Active

## O=C(OC[C@H]1O[C@@H](OC(=O)c2cc(O)c(O)c(OC(=O)c3cc(O)c(O)c(O)c3)c2)[C@H](OC(=O)c2cc(O)c(O)c(OC(=O)c3cc(O)c(O)c(O)c3)c2)[C@@H](OC(=O)c2cc(O)c(O)c(OC(=O)c3cc(O)c(O)c(O)c3)c2)[C@@H]1OC(=O)c1cc(O)c(O)c(OC(=O)c2cc(O)c(O)c(O)c2)c1)c1cc(O)c(O)c(OC(=O)c2cc(O)c(O)c(O)c2)c1 [TANNIC ACID]
Caenorhabditis elegans [28]
  Activity: 17.6%
Caenorhabditis elegans [29]
  Activity: 3.2%
Caenorhabditis elegans [30]
  Activity: Active
Caenorhabditis elegans [31]
  Activity: Active
Caenorhabditis elegans [11]
  Activity: Toxic
Caenorhabditis elegans [32]
  Activity: Active
Caenorhabditis elegans [33]
  Activity: Active
Caenorhabditis elegans [7]
  Activity: inactive
Caenorhabditis elegans [34]
  Activity: Active
Caenorhabditis elegans [8]
  Activity: Active
Caenorhabditis elegans [35]
  Activity: inactive
Caenorhabditis elegans [9]
  Activity: 100 µM
Caenorhabditis elegans [10]
  Activity: Active
